Each structure is given as a SMILES string.

This is an account of results in publication PMC4754833, “Rilpivirine analogs potently inhibit drug-resistant HIV-1 mutants” (Retrovirology, 2016).

Assay [1] has as its system HIV-1 RT mutant H221Y. Set-up: method as in PMID 23217210. As to conditions: previous study; cited from earlier work.
Assay [2] relates to HIV-1 RT mutant P236L. The assay can be described thus: single round infection assay, P236L. As to conditions: Human immunodeficiency virus 1. Format: cell-based.
Assay [3] deals with HIV-1 RT mutant E40K. The assay can be described thus: single round infection assay, E40K. Format: cell-based. As to conditions: for fold-change of IC50 of the mutant relative to WT: E40K vs WT. The procedure: (§1) The human osteosarcoma cell line, HOS, was obtained from Dr. Richard Schwartz (Michigan State University, East Lansing, MI) and grown in Dulbecco’s modified Eagle’s medium (Invitrogen, Carlsbad, CA) supplemented with 5 % (v/v) fetal bovine serum, 5 % newborn calf serum, and penicillin (50 units/ml) plus streptomycin (50 µg/ml; Quality Biological, Gaithersburg, MD). Virion production and single-round infectivity assays were used to determine antiviral activity (IC50 values) of the compounds as previously described.
(§2) pNLNgoMIVR-ΔEnv.LUC has been described previously. The RT open reading frame was removed from pNLNgoMIVR-ΔEnv.LUC (digestion with SpeI and SalI) and inserted between the SpeI and SalI sites of pBluescript II KS+. Using that construct as the wild-type template, we prepared the following HIV-1 RT mutants using the QuikChange II XL (Stratagene, La Jolla, CA) site-directed mutagenesis protocol kit: L100I, K103N, Y181C, Y188L, H221Y, K103N/Y181C, G190A, G190S, M230L, P236L, L100I/K103N, K103N/P225H, V106A/G190A/F227L, V106A, L234I, V106A/F227L, V106A/L234I, V106A/F227L/L234I, E40K, D67E, K101E, V111A, E138K, M184I, M184V, K101E/M184I, K101E/M184V, E138K/M184I, E138K/M184V, K101P, Y181I, and K101P/V179I. The following sense oligonucleotides were used with matching cognate antisense oligonucleotides (not shown) (Integrated DNA Technologies, Coralville, IA) in the mutagenesis: L100I, 5′-[…]-3′; L100I 2-103, 5′-[…]-3′; K103N, 5′-[…]-3′; Y181C, 5′-[…]-3′; Y188L, 5′-[…]-3′; H221Y, 5′-[…]-3′; G190A, 5′-[…]-3′; G190S, 5′-[…]-3′; P225H, 5′-[…]-3′; F227, 5′-[…]-3′; M230L, 5′-[…]-3′; P236L, 5′-[…]-3′; V106A, 5′-[…]-3′; L234I, 5′-[…]-3′; E40K, 5′-[…]-3′; D67E, 5′-[…]-3′; K101E, 5′-[…]-3′; V111A, 5′-[…]-3′; E138K, 5′-[…]-3′; M184I, 5′-[…]-3′; M184V, 5′-[…]-3′; K101P, 5′-[…]-3′; Y181I, 5′-[…]-3′; K101P/V179I, 5′-[…]-3′. The double mutants K103N/Y181C, K103N/P225H, and L100I/K103N were made using the previously generated K103N mutant and the appropriate oligonucleotides to add the second mutation, Y181C, P225, and L100I respectively. The double mutants V106A/F227L and V106A/L234I were prepared using the previously generated V106A mutant and the appropriate oligonucleotides to add the second mutation, F227L and L234I, respectively. The double mutants K101E/M184I and K101E/M184V were constructed using the previously generated K101E mutant and the appropriate oligonucleotides to add the second mutation, M184I and M184V, respectively. The double mutants E138K/M184I and E138K/M184V were constructed using the previously generated E138K mutant and the appropriate oligonucleotides for the second mutation, M184I and M184V, respectively. The triple mutant V106A/F227L/L234I was made using the previously generated V106A/F227L double mutant and the appropriate oligonucleotides for the third mutation, L234I. The triple mutant V106A/G190A/F227L was constructed in a series of steps using the previously generated V106A mutant and the appropriate oligonucleotides for the second mutation, G190A, to generate the double mutant V106A/G190A, and then the triple mutant was made using double mutant V106A/G190A and oligonucleotides for the third mutation, F227L. The DNA sequence of each construct was verified by DNA sequence determination. The sequences encoding the mutant RTs were then subcloned into pNLNgoMIVR-ΔEnv.LUC (between the KpnI and SalI sites) to produce the mutant HIV-1 constructs. These DNA sequences were also checked independently by DNA sequence determination.
(§3) 10.1186/s12977-016-0244-2 The IC50 values (nM) of RPV and the RPV analogs were determined against the NNRTI resistant mutants were measured by using a single round infection assay, n = 4. The concentrations (nM) are measured by reductions in luciferase reporter activity followed by the standard deviations. […]

Assay [4] concerns HIV-1 RT mutant D67E. The assay can be described thus: single round infection assay, D67E. It counts as cell-based. The following applies: for fold-change of IC50 of the mutant relative to WT: D67E vs WT; for IC50: Human immunodeficiency virus 1, D67E, ± SD, n=4.
The subject of assay [5] is HIV-1 RT mutant L100I/K103N. The assay can be described thus: single round infection assay, L100I/K103N. As to conditions: for IC50: Human immunodeficiency virus 1, L100I/K103N, ± SD, n=4, limit of detection 100 nM; for fold-change of IC50 of the mutant relative to WT: L100I/K103N vs WT. It counts as cell-based. The procedure:
as §1, §2, §3

Assay [6] relates to HIV-1 RT mutant K101E. As to the kind of experiment: single round infection assay, K101E. It counts as cell-based. The following applies: for IC50: Human immunodeficiency virus 1, K101E, ± SD, n=4; for fold-change of IC50 of the mutant relative to WT: K101E vs WT. The procedure:
as §1, §2, §3

For assay [7], the system named is HIV-1 RT mutant L100I. More on the design: method as in PMID 23217210. The following applies: previous study; cited from earlier work.
For assay [8], the system named is HIV-1 RT mutant K101P/V179I. The assay can be described thus: single round infection assay, K101P/V179I. The following applies: Human immunodeficiency virus 1. Format: cell-based.
The test system of assay [9] is HIV-1 RT mutant V106A. The assay can be described thus: single round infection assay, V106A. Format: cell-based. The following applies: for IC50: ± SD, n=4; for fold-change of IC50 of the mutant relative to WT: V106A vs WT. The procedure: as §1, §2, §3
For assay [10], the system named is HIV-1 RT mutant K103N/P225H. As to the kind of experiment: single round infection assay, K103N/P225H. It counts as cell-based. The following applies: for IC50: Human immunodeficiency virus 1; for fold-change of IC50 of the mutant relative to WT: K103N/P225H vs WT.
The test system of assay [11] is HIV-1 RT mutant V106A/G190A/F227L. As to the kind of experiment: single round infection assay, V106A/G190A/F227L. As to conditions: for IC50: Human immunodeficiency virus 1; for fold-change of IC50 of the mutant relative to WT: V106A/G190A/F227L vs WT. It counts as cell-based.
The subject of assay [12] is HIV-1 RT mutant V106A/F227L/L234I. The assay can be described thus: single round infection assay, V106A/F227L/L234I. As to conditions: for fold-change of IC50 of the mutant relative to WT: V106A/F227L/L234I vs WT; for IC50: ± SD, n=4. Format: cell-based.

For the molecule `Cc1cc(/C=C/C#N)cc(C)c1Nc1nc(Nc2ccc(F)cc2)c2nc[nH]c2n1` [compound 17], the IC50 in [1] was less than 7 nM; in [2], 1.2 nM; in [3] (Human immunodeficiency virus 1, E40K, ± SD, n=4) it was 6.4 nM; in assay [4], 26 nM; in assay [5], 63.4 nM; in assay [6] it was 8.9 nM. For the same molecule, the IC50 was less than 7 nM in [7]; greater than 100 nM in assay [8]; less than 5 nM in [9] (Human immunodeficiency virus 1, V106A (selected by DOR)); 2.7 ± 0.64 nM in assay [9] (V106A (selected by DOR)); 3.4 ± 0.2 nM in assay [10]; 10.8 ± 2.5 nM in assay [11]. The “fold-change of IC50 of the mutant relative to WT” value in [3] is 3; in [4] it was 12; in assay [5], 29; in assay [6] it was 4; in assay [9], 2; in assay [10], less than 2. Moreover, the “fold-change of IC50 of the mutant relative to WT” value is given as 5 in assay [11] and 6 in [12].

For the molecule `Cc1cc(/C=C/C#N)cc(C)c1Nc1nc(Nc2ccc3scnc3c2)c2nc[nH]c2n1` [compound 21], the IC50 is less than 7 nM in [1]; 0.32 ± 0.09 nM in assay [2]; 3.6 ± 0.6 nM in [4]; 37.6 nM in [5]; 3.9 ± 0.14 nM in assay [6]; less than 7 nM in assay [7]. For the same molecule, the IC50 is greater than 100 nM in [8]; 1.4 ± 0.07 nM in assay [10]; 3.8 ± 1.6 nM in assay [11]; less than 5 nM in assay [12] (Human immunodeficiency virus 1, V106A/F227L/L234I (selected by DOR)); 4.3 ± 0.8 nM in assay [12] (V106A/F227L/L234I (selected by DOR)). For the same molecule, the “fold-change of IC50 of the mutant relative to WT” value stood at 2 in assay [3]; 9 in [4]; 92 in assay [5]; 10 in [6]; 3 in assay [9]; 3 in [10]. Moreover, the “fold-change of IC50 of the mutant relative to WT” value in [11] is 9; in assay [12], 10.
